Test results reported in a melting point compilation (Tetko et al.; mined from patent text by program, amines drawn as free bases though some values may be those of a salt).
Residues, ends and D or L forms follow the SMILES beside them. *: point of attachment. Cbz = O=C(OCc1ccccc1)*; Boc = CC(C)(C)OC(=O)*

melting point [°C]	Compound
239 to 241	COc1ccc(NCCn2nc(O)c3[nH]c4cc(Cl)ccc4c(=O)c3c2=O)cc1
224 to 226	CCC(=O)Nc1cccc2c1C1(COc3cc4c(cc31)OCCO4)C(=O)N2C (configuration not stated)
> 275	O=c1ccc(S(=O)(=O)c2cc3c(=O)[nH]ccc3o2)n[nH]1
55 to 65	Cc1cc2c(s1)Nc1ccccc1N=C2N1CCN(C)[C@@H](COCc2ccccc2)C1
123 to 124	CCOC(=O)CNC(=O)C=C(c1ccc(Cl)cc1)c1ccc(Cl)cc1
72 to 73	ClCc1cccc2cc(-c3ccccc3)oc12
114 to 115	CCc1cc(C(C)=O)ccc1N=C1SCC2(CCCC2)N1C1CCCC1
231 to 234	COc1ncccc1-c1[nH]c2ccccc2c1C1CCN(S(=O)(=O)c2ccccc2)CC1
198 to 200	O=C(O)c1cn(CCc2ccccc2)c2cc(C3CCCC3)nn2c1=O
142 to 145	COc1ccc2c(c1)CCC1C3CC4OCCOC4C3(C)CC(=O)C21C (configuration not stated)
228 to 230	Cn1cc(Br)nc(Nc2cnn(C3CC3)c2)c1=O
213 to 214	CCOC(=O)c1ccc(-c2c(Cl)c(CN3C(=O)CCC3=O)nc3sc4c(c23)CCNC4)cc1
192 to 194	Nc1nc(-c2cc(Cl)ccc2Cl)nc(N2CCCCC2)n1
187 to 189	COc1cc(Nc2c(C#N)cnc3cc(-c4ccc(CN(C)C)cc4)ccc23)c(Cl)cc1Cl
232 to 234	CCn1cc(C(=O)O)c(=O)c2cc(F)c(N3CCNC(c4cccs4)C3)cc21 (configuration not stated)
126 to 127	CCOC(=O)C1CCc2c(n(C)c3ccc(Cl)cc23)C1 (configuration not stated)
252 to 253	Cc1nc2c(s1)-c1nc(Nc3ccc(Cl)nc3)ncc1CC2
55 to 58	CN1C(=O)[C@@H](CN2CCCCC2)C[C@H]1c1ccc(Br)cc1

melting point [°C]	Compound
325	NC(=O)c1cc(O)cc2nc(-c3ccc(O)cc3)oc12
126 to 129	CCOc1ccc2nc(Sc3ccc([N+](=O)[O-])c(N)c3)sc2c1
182	NS(=O)(=O)c1cccc(-c2cc(-c3nc(-c4ccc(Cl)cc4)cc(C(F)(F)F)n3)ccn2)c1
295 to 300	CC1=N/C(=C\c2c[nH]c3ncc(Cl)cc23)C(=O)N1C
121 to 123	CC1=CC(O)C(OC(=O)c2cccc(N)c2)C(C)(C)CC1=O (configuration not stated)
90 to 107	CCOC(=O)Cn1cnc2c(Cl)nc(NC(=O)c3ccc(C4CCCCC4)cc3)nc21
114	COC(=O)C(=CN(C)C)c1sc(Cl)nc1COc1ccccc1
165 to 167	CCOC(=O)c1cc(C#N)c(C=O)nc1Nc1ccccc1
> 250	Cc1cc(-c2ccc(C(F)(F)F)cc2)nc(-c2cccc(-c3cccc(S(=O)(=O)NC(C)(C)C)c3)n2)n1
137 to 138	O=C(O)c1ccc(C(F)(F)F)nc1C=CCCl
217 to 218	CNc1nc(-c2ccc(Cl)cc2)c(CCC(=O)O)o1
207 to 208	CCCCCS(=O)(=O)NC(=O)c1ccc2nc(C)n(Cc3ccc(N(C)C(=O)C(C)(C)C)cc3Cl)c2n1
105 to 106	CCN1N=C(c2ccc(OC)c(OC)c2)[C@@H]2CCCC[C@@H]2C1=O (relative stereo)
73 to 75	CCOC(=O)c1cnc2c(c(C)nc3cc(C)nn32)c1NCCCN(C)C
178 to 181	CC(C)OC(=O)N1CCC(c2nc3cc(-c4ccc(C(N)=O)c(Cl)c4)ccc3o2)CC1
131 to 133	Fc1ccc2[nH]cc([C@H]3CC[C@H](NCc4ccccc4)CC3)c2c1
119	Cc1ccnc(N2CCN(CCCCC3Sc4ccccc4NC3=S)CC2)c1 (configuration not stated)
184 to 186	Cc1noc(NS(=O)(=O)c2ccccc2-c2c[nH]c3ccccc23)c1C

The remaining lines, values behind:

Compound	melting point [°C]
COc1cc2c(c(C(C)(C)C)c1)OC(=O)C2=C1C(=O)Nc2c(Br)cc(Br)cc21	303 to 314
CCCc1nc(CO)c(C)[nH]1	134 to 136
O=c1scc(-c2ccc(CCO)cc2)s1	92 to 94
CCCCCCCCCCCCC#CCC(COC(C)=O)(COC(C)=O)NC(C)=O	95.5 to 96.5
COc1cc(C(=O)N2CC(O)CC2C(N)=O)cc(OC)c1OC (configuration not stated)	172
O=[N+]([O-])CS(=O)(=O)c1ccc2c(c1)OCO2	131 to 132
CCOC(=O)c1[nH]c2c(c1C)CC1CN(CC)CCC1(c1cccc(O)c1)C2 (configuration not stated)	195 to 197
COc1ccc(NC(=S)Nc2ccc(NNC=O)cc2)cc1	198 to 200
CCOC(=O)C1(C(=O)OCC)Cc2ccc(OC)c(Cl)c2O1	97 to 99
Nc1ccc(SC(F)(F)F)cc1[N+](=O)[O-]	86
O=C(O)c1nc(SCc2ccccc2)ccc1SCc1ccccc1	129
O=C(c1ccccc1Cl)P1(=O)Oc2ccccc2-c2ccccc21 (configuration not stated)	108 to 110
CC(C)(C)c1cc(CCC(=O)OC2CCCCCCCCCCC2OC(=O)CCc2cc(C(C)(C)C)c(O)c(C(C)(C)C)c2)cc(C(C)(C)C)c1O (configuration not stated)	61 to 74
CC(OC(=O)C1(C(=O)O)Oc2ccc(C[C@@H](C)NC[C@H](O)c3cccc(Cl)c3)cc2O1)c1ccccc1 (some centres not stated)	71 to 79
Cc1ccc(CC(CC(=O)N2CC3CC=CCC3C2)C(=O)O)cc1 (configuration not stated)	140 to 141
CCOC(=O)C1=C(C)NC(CO)=C(C(=O)OCC)C1c1ccccc1[N+](=O)[O-] (configuration not stated)	112 to 113

Compound	melting point [°C]
CCCC[C@H](NC(=O)[C@H](CC(C)C)NC(=O)c1ccccc1OC)C(=O)CSCc1ccco1	77 to 78
CCCCCCNC(=O)Nc1ccccc1C(=O)NCCC1CCN(C(c2ccccc2)c2ccccc2)CC1	143 to 144
CC(C)(C)C(=O)Nc1nc(O)c2c(n1)NCC(CO)C2 (configuration not stated)	236 to 238
Cc1cccc(C2(Cn3cncn3)CC(COc3ccccc3[N+](=O)[O-])ON2C)c1 (configuration not stated)	149 to 152
CC(C)(C)OC(=O)C[C@H](NC(=O)CNC(=O)c1csc(NC(=O)NCc2ccccn2)n1)C(=O)NCc1ccccn1	112
CNc1ccc2c(c1)C(c1ccccc1F)=NCc1cnc(C)n1-2	255 to 259
CNC(=O)c1c(NC)ncn1Cc1ccccc1	113 to 114
COC(=O)c1ccccc1NC(=S)NN(C)C	149 to 152
COC1C(C)OC(ON(C)Cc2ccc(-c3ncn(-c4ccc(OC(F)(F)F)cc4)n3)cc2)C(OC)C1OC (configuration not stated)	93 to 100
Cc1cc(C2=NOC(c3cc(Cl)cc(Cl)c3)(C(F)(F)F)C2)ccc1C(=O)N(C)C1CCCS1 (configuration not stated)	146 to 151
CCCCCCC(C)(C)c1ccc([C@@H]2CC(=O)C[C@@H](C#N)C2)c(OCc2ccccc2)c1 (relative stereo)	79
CC(=O)CC(=O)Nc1ccc(SC(F)(F)F)cc1	120 to 122
CC(NC(=O)OCc1ccccc1)C(=O)NC(C(=O)NC(CCCCNC(=O)OC(C)(C)C)C(N)=O)C(C)C (stereo not drawn) (Cbz-Ala-Val-Lys(Boc)-NH2; configuration not given here)	214 to 217
CN(C)Cc1nnc2n1-c1ccc([N+](=O)[O-])cc1C(c1ccccc1)=[N+]([O-])C2	228 to 230
CCCCCCCCCCc1c(C(=O)OCC)sc2c1sc1c3sc(C(=O)OCC)c(CCCCCCCCCC)c3sc21	130 to 132
